Data from ChEMBL document CHEMBL1138148, “Conformational constraint in oxazolidinone antibacterials. Part 2: Synthesis and structure-activity studies of oxa-, aza-, and thiabicyclo[3.1.0]hexylphenyl oxazolidinones” (2006).
Converted amounts (≈) assume the structure as drawn.

Key:
Type in all cases: functional
Staphylococcus aureus = assay: Antibacterial activity against Staphylococcus aureus UC-76 SA-1
Streptococcus pneumoniae = assay: Antibacterial activity against Streptococcus pneumoniae SVI SP-3
Enterococcus faecalis = assay: Antibacterial activity against Enterococcus faecalis MGH-2 EF1-1
Haemophilus influenzae = assay: Antibacterial activity against Haemophilus influenzae HI3542; conditions: HI-3542
Moraxella catarrhalis = assay: Antibacterial activity against Moraxella catarrhalis BC-3531

SMILES	MIC (Staphylococcus aureus) [µg/mL]	MIC (Streptococcus pneumoniae) [µg/mL]	MIC (Enterococcus faecalis) [µg/mL]	MIC (Haemophilus influenzae) [µg/mL]	MIC (Moraxella catarrhalis) [µg/mL]
CC(=O)NC[C@H]1CN(c2ccc([C@H]3[C@@H]4CN(C=O)C[C@@H]43)c(F)c2)C(=O)O1	2 (≈ 5.53 µM)	1 (≈ 2.77 µM)	2 (≈ 5.53 µM)	8 (≈ 22.1 µM)	8 (≈ 22.1 µM)
N#CCC(=O)NC[C@H]1CN(c2cc(F)c([C@H]3[C@@H]4CS(=O)(=O)C[C@@H]43)c(F)c2)C(=O)O1	4 (≈ 9.4 µM)	2 (≈ 4.7 µM)	4 (≈ 9.4 µM)	4 (≈ 9.4 µM)	8 (≈ 18.8 µM)
O=C(CO)NC[C@H]1CN(c2cc(F)c([C@H]3[C@@H]4CS(=O)(=O)C[C@@H]43)c(F)c2)C(=O)O1	4 (≈ 9.61 µM)	2 (≈ 4.8 µM)	4 (≈ 9.61 µM)	8 (≈ 19.2 µM)	8 (≈ 19.2 µM)
CC(=O)NC[C@H]1CN(c2ccc([C@H]3[C@@H]4CN(C#N)C[C@@H]43)c(F)c2)C(=O)O1	2 (≈ 5.58 µM)	1 (≈ 2.79 µM)	1 (≈ 2.79 µM)	8 (≈ 22.3 µM)	4 (≈ 11.2 µM)
CC(=O)NC[C@H]1CN(c2ccc([C@H]3[C@@H]4CN(c5nn[nH]n5)C[C@@H]43)c(F)c2)C(=O)O1	64 (≈ 159 µM)	64 (≈ 159 µM)	32 (≈ 79.7 µM)	64 (≈ 159 µM)	64 (≈ 159 µM)
CC(=O)NC[C@H]1CN(c2ccc([C@H]3[C@@H]4CN(C(=O)CN)C[C@@H]43)c(F)c2)C(=O)O1	16 (≈ 41 µM)	1 (≈ 2.56 µM)	4 (≈ 10.2 µM)	16 (≈ 41 µM)	16 (≈ 41 µM)
CC(=O)NC[C@H]1CN(c2ccc([C@H]3[C@@H]4CN(C(=O)CC#N)C[C@@H]43)c(F)c2)C(=O)O1	1 (≈ 2.5 µM)	1 (≈ 2.5 µM)	1 (≈ 2.5 µM)	8 (≈ 20 µM)	4 (≈ 9.99 µM)
CC(F)(F)C(=O)NC[C@H]1CN(c2ccc([C@H]3[C@@H]4CS(=O)(=O)C[C@@H]43)c(F)c2)C(=O)O1	8 (≈ 18.5 µM)	2 (≈ 4.63 µM)	8 (≈ 18.5 µM)	16 (≈ 37 µM)	8 (≈ 18.5 µM)
CC(=O)NC[C@H]1CN(c2ccc([C@H]3[C@@H]4CN(C(=N)N)C[C@@H]43)c(F)c2)C(=O)O1	64 (≈ 170 µM)	4 (≈ 10.7 µM)	64 (≈ 170 µM)	64 (≈ 170 µM)	16 (≈ 42.6 µM)
O=C(NC[C@H]1CN(c2ccc([C@H]3[C@@H]4CS(=O)(=O)C[C@@H]43)c(F)c2)C(=O)O1)C1CC1	4 (≈ 9.79 µM)	2 (≈ 4.9 µM)	4 (≈ 9.79 µM)	4 (≈ 9.79 µM)	4 (≈ 9.79 µM)
CC(=O)NC[C@H]1CN(c2ccc([C@H]3[C@@H]4CN(C(=O)C(C)(C)O)C[C@@H]43)c(F)c2)C(=O)O1	8 (≈ 19.1 µM)	2 (≈ 4.77 µM)	4 (≈ 9.54 µM)	32 (≈ 76.3 µM)	16 (≈ 38.1 µM)
COC(=O)N1C[C@@H]2[C@H](C1)[C@H]2c1ccc(N2C[C@H](CNC(C)=O)OC2=O)cc1F	4 (≈ 10.2 µM)	2 (≈ 5.11 µM)	4 (≈ 10.2 µM)	32 (≈ 81.8 µM)	8 (≈ 20.4 µM)
CC(=O)NC[C@H]1CN(c2ccc([C@H]3[C@@H]4CN(C(=O)CO)C[C@@H]43)cc2)C(=O)O1	4 (≈ 10.7 µM)	4 (≈ 10.7 µM)	4 (≈ 10.7 µM)	8 (≈ 21.4 µM)	4 (≈ 10.7 µM)
O=C(CO)NC[C@H]1CN(c2ccc([C@H]3[C@@H]4CS(=O)(=O)C[C@@H]43)c(F)c2)C(=O)O1	8 (≈ 20.1 µM)	4 (≈ 10 µM)	8 (≈ 20.1 µM)	8 (≈ 20.1 µM)	8 (≈ 20.1 µM)
CC(=O)NC[C@H]1CN(c2ccc([C@H]3[C@@H]4CN(CCO)C[C@@H]43)c(F)c2)C(=O)O1	4 (≈ 10.6 µM)	0.5 (≈ 1.32 µM)	8 (≈ 21.2 µM)	8 (≈ 21.2 µM)	8 (≈ 21.2 µM)
C/N=C(\NC#N)N1C[C@@H]2[C@H](C1)[C@H]2c1ccc(N2C[C@H](CNC(C)=O)OC2=O)cc1F	4 (≈ 9.65 µM)	2 (≈ 4.83 µM)	4 (≈ 9.65 µM)	16 (≈ 38.6 µM)	32 (≈ 77.2 µM)
CCC(=O)NC[C@H]1CN(c2ccc([C@H]3[C@@H]4CS(=O)(=O)C[C@@H]43)c(F)c2)C(=O)O1	4 (≈ 10.1 µM)	1 (≈ 2.52 µM)	2 (≈ 5.04 µM)	8 (≈ 20.2 µM)	8 (≈ 20.2 µM)

SMILES	MIC (Staphylococcus aureus) [µg/mL]	MIC (Streptococcus pneumoniae) [µg/mL]	MIC (Enterococcus faecalis) [µg/mL]	MIC (Haemophilus influenzae) [µg/mL]	MIC (Moraxella catarrhalis) [µg/mL]
CC(=O)NC[C@H]1CN(c2cc(F)c([C@H]3[C@@H]4CN(C(=O)CO)C[C@@H]43)c(F)c2)C(=O)O1	4 (≈ 9.77 µM)	2 (≈ 4.89 µM)	4 (≈ 9.77 µM)	16 (≈ 39.1 µM)	8 (≈ 19.5 µM)
CC(=O)NC[C@H]1CN(c2ccc([C@H]3[C@@H]4CN(C(=N)NC#N)C[C@@H]43)c(F)c2)C(=O)O1	1 (≈ 2.5 µM)	1 (≈ 2.5 µM)	2 (≈ 4.99 µM)	8 (≈ 20 µM)	8 (≈ 20 µM)
CC(F)(F)C(=O)NC[C@H]1CN(c2cc(F)c([C@H]3[C@@H]4CS(=O)(=O)C[C@@H]43)c(F)c2)C(=O)O1	4 (≈ 8.88 µM)	1 (≈ 2.22 µM)	2 (≈ 4.44 µM)	16 (≈ 35.5 µM)	8 (≈ 17.8 µM)
O=C(NC[C@H]1CN(c2cc(F)c([C@H]3[C@@H]4CS(=O)(=O)C[C@@H]43)c(F)c2)C(=O)O1)C1CC1	2 (≈ 4.69 µM)	1 (≈ 2.34 µM)	2 (≈ 4.69 µM)	8 (≈ 18.8 µM)	4 (≈ 9.38 µM)
O=C(NC[C@H]1CN(c2ccc([C@H]3[C@@H]4CS(=O)(=O)C[C@@H]43)c(F)c2)C(=O)O1)C1CCC1	8 (≈ 18.9 µM)	2 (≈ 4.73 µM)	8 (≈ 18.9 µM)	32 (≈ 75.7 µM)	32 (≈ 75.7 µM)
CC(=O)NC[C@H]1CN(c2ccc([C@H]3[C@@H]4COC[C@@H]43)cc2)C(=O)O1	8 (≈ 25.3 µM)	8 (≈ 25.3 µM)	16 (≈ 50.6 µM)	32 (≈ 101 µM)	8 (≈ 25.3 µM)
N#CCC(=O)NC[C@H]1CN(c2ccc([C@H]3[C@@H]4CS(=O)(=O)C[C@@H]43)c(F)c2)C(=O)O1	8 (≈ 19.6 µM)	4 (≈ 9.82 µM)	8 (≈ 19.6 µM)	8 (≈ 19.6 µM)	8 (≈ 19.6 µM)
CC(=O)NC[C@H]1CN(c2ccc([C@H]3[C@@H]4CN(CCC#N)C[C@@H]43)c(F)c2)C(=O)O1	2 (≈ 5.18 µM)	1 (≈ 2.59 µM)	2 (≈ 5.18 µM)	16 (≈ 41.4 µM)	8 (≈ 20.7 µM)
CC(=O)NC[C@H]1CN(c2ccc([C@H]3[C@@H]4CNC[C@@H]43)c(F)c2)C(=O)O1	8 (≈ 24 µM)	2 (≈ 6 µM)	16 (≈ 48 µM)	32 (≈ 96 µM)	8 (≈ 24 µM)
CC(=O)NC[C@H]1CN(c2ccc([C@H]3[C@@H]4CN(C(=O)C(F)F)C[C@@H]43)c(F)c2)C(=O)O1	4 (≈ 9.72 µM)	1 (≈ 2.43 µM)	2 (≈ 4.86 µM)	16 (≈ 38.9 µM)	8 (≈ 19.4 µM)
CC(=O)NC[C@H]1CN(c2cc(F)c([C@H]3[C@@H]4COC[C@@H]43)c(F)c2)C(=O)O1	8 (≈ 22.7 µM)	4 (≈ 11.4 µM)	8 (≈ 22.7 µM)	32 (≈ 90.8 µM)	8 (≈ 22.7 µM)
CCC(=O)NC[C@H]1CN(c2cc(F)c([C@H]3[C@@H]4CS(=O)(=O)C[C@@H]43)c(F)c2)C(=O)O1	2 (≈ 4.83 µM)	1 (≈ 2.41 µM)	2 (≈ 4.83 µM)	4 (≈ 9.65 µM)	4 (≈ 9.65 µM)
CC(=O)NC[C@H]1CN(c2ccc([C@H]3[C@@H]4CN(CCF)C[C@@H]43)c(F)c2)C(=O)O1	4 (≈ 10.5 µM)	1 (≈ 2.64 µM)	4 (≈ 10.5 µM)	16 (≈ 42.2 µM)	8 (≈ 21.1 µM)
CC(=O)NC[C@H]1CN(c2ccc([C@H]3[C@@H]4CN(c5nnn(C)n5)C[C@@H]43)c(F)c2)C(=O)O1	2 (≈ 4.81 µM)	1 (≈ 2.41 µM)	2 (≈ 4.81 µM)	16 (≈ 38.5 µM)	8 (≈ 19.3 µM)
CC(=O)NCC(=O)N1C[C@@H]2[C@H](C1)[C@H]2c1ccc(N2C[C@H](CNC(C)=O)OC2=O)cc1F	4 (≈ 9.25 µM)	4 (≈ 9.25 µM)	4 (≈ 9.25 µM)	32 (≈ 74 µM)	32 (≈ 74 µM)
CC(=O)NC[C@H]1CN(c2ccc([C@H]3[C@@H]4COC[C@@H]43)c(F)c2)C(=O)O1	4 (≈ 12 µM)	2 (≈ 5.98 µM)	4 (≈ 12 µM)	8 (≈ 23.9 µM)	4 (≈ 12 µM)
CC(=O)NC[C@H]1CN(c2ccc(N3CCOCC3)c(F)c2)C(=O)O1 [LINEZOLID]				16 (≈ 47.4 µM)	8 (≈ 23.7 µM)
